These results are taken from US7723289B2, “PIF tetrapeptides” (BioIncept, LLC, priority 2003, dated 2010).

Data set [1] deals with PBMC. The experiment in a line: FITC-labeled PIF binding to PBMC subpopulations (flow cytometry). Further details: species or system human. The conditions noted are these: PBMC within 24 hrs of PHA activation. Here is the method:
Expression of PIF-1(15) (SEQ ID NO:1), receptor following PHA induced PBMC proliferation CD-4 T cells; CD-8 T cells; NK cell and B cells (unstimulated-top); (PHA stimulated-bottom). Flow cytometry analysis of PBMC following exposure to FITC sPIF-1(15) (SEQ ID NO:13) % expression was determined in PBMC subtypes before and after exposure to 1 ug/ml PHA for 24 hours.
(§1) Human PBMC were isolated by the Ficoll method. FITC-labeled nPIF-115 (SEQ ID NO: 1) and (FITC)-labeled scrPIF-1 (SEQ ID NO:5) and match-size irrelevant peptide (FITC)-labeled negative controls negPIF-1(15) (SEQ ID NO:11), were dissolved in PBS at concentrations ranging from 0.75 to 48.19 μM, and were incubated with 500,000 lymphocytes for 1 h at room temperature. The cells were washed 6 times with PBS and resuspended in 500 μl of the same buffer. T-cells and monocytes identification was performed in independent experiments by incubation with anti-CD3 and anti-CD14 antibody-phycoerithryn (PE) labeled. nPIF-115 (SEQ ID NO: 1) binding to PBMC was determined by flow cytometry. In addition, rosettes formed by T cell-platelets were detected by flow cytometry using anti-CD3 antibody-PE and anti-CD41a antibody-FITC (all antibodies were from Pharmingen Inc.).
Using flow cytometry fluoroscein-labeled sPIF-115 (SEQ ID NO: 13) binding to immune cells was examined on resting PBMC.
(In general: A flow cytometer gives signals particle by particle.)

The subject of data set [2] is mouse splenocytes. Kind of data set: FITC peptide binding to mouse splenocytes with 100 fold excess unlabeled peptide. Also on record: species or system C57Bl/6 mice. The note with it: 300 nM FITC peptide, 100 fold excess unlabeled PIF.
Procedure: Virgin female C57Bl/6 mice were sacrificed and spleen cells were isolated and placed in AIM V culture media with 300 nM FITC PIF-1 (15)+/−100 fold excess unlabeled PIF. Following incubation cells were placed in a flow cytometry and the percentage of cells stained examined.
Splenocytes from virgin female C57BL/6 mice were stained with 300 nM of PIF-1-FITC or scrPIF-1-FITC. Filled histograms indicated PIF-1-FITC or scrPIF-1-FITC alone. Empty histograms represent PIF-1-FITC or scrPIF-1-FITC staining in the presence of 100-fold excess of corresponding unlabeled peptide. Histograms represent both monocytes and lymphocytes according to scatter gating.
Cells were evaluated using flow cytometry determining labeled cells population Filled histograms indicate PIF-FITC or scrPIF-FITC alone. […] Empty histograms represent PIF-FITC or scrPIF-FITC staining in the presence of 100-fold excess of corresponding unlabeled peptide. Histograms represent both monocytes and lymphocytes according to scatter gating.
The nature of data set [3]: Whole body distribution of FITC labeled PIF-1 after IV and IP injection. Type of data set: in vivo, rats. On the procedure: In a further experiment, PIF presence in the spleen was confirmed in vivo, In addition, PIF presence in the cecum, bone marrow and uterus was determined. Adult female rats were injected FITC labeled PIF-1 500 nM in 100 ul volume IV and IP (Eric Solon QPS Inc). 5 and 30 minutes later rats were sacrificed and snap frozen in hexane embedded in frozen media. Whole body 40 um cryo sectioned were obtained and scaaned with a 9140 Typhoon bioimage scanner at a FITC excitation length.

Data set [4] relates to mice. The experiment in a line: Intravaginal administration twice daily for seven days in mated mice. The data set is classed as in vivo. The conditions noted are these: mice that conceived; implantation sites and viable embryos unaffected. Here is the method:
Female mice were mated with mice from the same strain. Subsequently, on day 0 (presumed day of mating) PIF-1scr in saline solution was administered intravaginally twice daily for seven days (Dr Alan Hoberman, Argus, Inc). The dose was 800 ug/day, 150 ug/ml or saline vehicle only (5 animals in each group). Subsequently, mice were sacrificed at day 12 of presumed gestation and Caesarean-sectioned. Corpora lutea, implantation sites and live and dead embryos were recorded.

Data set [5] concerns β-3 integrin. Kind of data set: β-3 integrin expression by human endometrial epithelial cells (flow cytometry, immunocytochemistry). Type of data set: cell-based. The note with it: hEEC, 2-day culture, 1-500 nM. Here is the method:
Human endometrial tissues were digested and stromal and epithelial cells (hEEC) isolated and cultured with a fetal bovine serum (FBS)-enriched medium until confluent layers were obtained. After that the cells were cultured for two more days in a FBS free-medium followed by a further 2-day culture in the same medium containing PIF peptides (1-500 nM).
(§2) In addition, to compare the recovery of β-3 integrin expression with PIF effects described after cultured hEEC in a free-fetal bovine serum (FBS) medium some cells were cultured again in FBS-medium. […] PIF binding to epithelial cells was also examined. Binding was examined using MaBCD2 staining.

For data set [6], the system named is CD3. The experiment in a line: CD3 expression in PBMC (flow cytometry, MAbCD3-PE). The data set is classed as cell-based. The note with it: PBMC exposed 3 days, 2-200 nM. Here is the method: Fluorescent PIF peptides bind to immune cell membranes following activation. […] CD69 is expressed during activation of lymphocytes and monocytes, and is a marker of NK cells activation. CD25 is the receptor for IL-2, and a known activation marker as well. […] The expression of CD3 in PBMC was examined following exposure for 3 days to sPIF-1(15) (SEQ ID NO:13) (2-200 nM) using 20 ul MAbCD3-PE (BD).

The subject of data set [7] is epithelial cells. The experiment in a line: PIF binding to endometrial epithelial cells (MaBCD2 staining). Further details: species or system human. The conditions noted are these: compared to non-relevant IgG. Here is the method:
as §2

Data set [8] relates to CD2. Kind of data set: CD2 expression in PBMC (flow cytometry, CD2MAb-FITC). The conditions noted are these: PBMC exposed 3 days. Type of data set: cell-based.
In data set [9] the test system is PBMC. Kind of data set: PIF and analogues on release of cytokines +/- platebound mAbCD3 (Table 4). The data set is classed as cell-based. Further details: IL-1β / TNFa / IL-4 / IL-5 / IL-6 / IL-10 / GM-CSM / IFN-g: unit not given here.
The test system of data set [10] is donor lymphocytes and platelets. The data set is classed as cell-based, human. The note with it: flow cytometric determination; data not shown.
From the text: The PIF assay, as disclosed in U.S. Pat. No. 5,646,003 to Barnea et al., entitled “Preimplantation Factor” issued Jul. 9, 1997, and in U.S. Pat. No. 5,981,198 to Barnea et al., entitled “Preimplantation Factor” granted Nov. 9, 1999, the disclosures of which are incorporated herein by reference in their entirety, may be used to measure the response of the immune system to pregnancy specific preimplantation factors. […] Lymphocyte-platelet rosettes result from the interaction of the T cell surface protein CD2 with its ligand CD58 expressed on the platelet membrane. Anti-CD2, by binding to the CD2 antigen on the T cells, inhibits their interaction with platelets.
as §1

No end group written: not given here.

Regarding “FITC sPIF-1(15): sPIF-1(15) labeled on N-terminus with fluorescein isothyocyanate via b-alanine spacer”, in [1], the “B cells positive for fluorescent PIF binding” value is on record as over 90% and the “T lymphocytes positive for fluorescent PIF binding” value is on record as 60-80%. For the same substance, the “dissociation of FITC PIF from the PIF receptor by unlabeled peptide” value in data set [2] is reported as over 90%. Besides, the IP pick up entry in [3] (500 nM in 100 ul IP, 5 and 30 minutes) was “slower with major collection in the cecum”. The “organs with specific pick up” value in [3] (500 nM in 100 ul IV, 5 and 30 minutes) is “spleen, bone marrow and uterus”. Moreover, the elimination entry in data set [3] (IV injected, FIG. 19) was “rapid elimination by the kidney”.
For the substance “GRVDPSNKSMPKDIA [scrPIF-115, GRVDPSNKSMPKDIA]”, the “toxic or teratogenic effects” value in data set [4] is given as “No toxic or teratogenic effects”.
With SQAVQEHASTNMG [sPIF-2(13)], the “increase in the expression of β-3-epithelial integrin” value in data set [5] is recorded as “up to a four-fold increase”. In addition, in data set [6], the “increase in CD3 receptor expression” value was 180-230%. Also, the “binding to epithelial cells” value in [7] is listed as “mild”. For the same substance, in data set [8], the “increase in CD2 expression” value was 125-160%.
In the case of MVRIKPGSA [sPIF-1(9)], the “increase in the expression of β-3-epithelial integrin” value in [5] is “up to a four-fold increase”. In data set [9] (C- (platebound mAbCD3), /1), this substance returned a GM-CSM of 14.3, an IFN-g of 86.5, an IL-1β of 4.8 and an IL-2 of 26.4. In data set [9] (C- (platebound mAbCD3), /1), this substance showed an IL-4 of 0, an IL-5 of 0, an IL-6 of 177.6 and an IL-8 of over 5000. Also, in [9] (C- (platebound mAbCD3), /1), the IL-10 came out at 49.0 and the TNFa amounted to 60.1. In [9] (C- (platebound mAbCD3), /50), the GM-CSM is on record as 25.3, the IFN-g worked out at 132.1, the IL-1β turned out to be 7.8 and the IL-2 is given as 33.7. In data set [9] (C- (platebound mAbCD3), /50), this substance yielded an IL-4 of 18.16, an IL-5 of 0, an IL-6 of 249.4 and an IL-8 of over 5000. In [9] (C- (platebound mAbCD3), /50), the IL-10 was determined as 105.0 and the TNFa is on record as 160.8. In addition, in data set [9] (U- (no mAbCD3), /1), the GM-CSM is recorded as 0, the IFN-g stood at 0, the IL-1β was 0 and the IL-2 was 0. In [9] (U- (no mAbCD3), /1), this substance yielded an IL-4 of 0, an IL-5 of 0, an IL-6 of 40.8 and an IL-8 of 772.46. In data set [9] (U- (no mAbCD3), /1), this substance registered an IL-10 of 0 and a TNFa of 0. In [9] (U- (no mAbCD3), /50), the GM-CSM was 0, the IFN-g amounted to 0, the IL-1β is listed as 0 and the IL-2 is 13.1. In data set [9] (U- (no mAbCD3), /50), the IL-4 came to 0, the IL-5 is given as 0, the IL-6 was found to be 38.7 and the IL-8 turned out to be 1480.2. In data set [9] (U- (no mAbCD3), /50), this substance returned an IL-10 of 0 and a TNFa of 0. In addition, in [9] (non-stimulated PBMC), the “effect on IL6 and 8” value is on record as “stimulatory effect”. In addition, the “binding to epithelial cells” value in [7] is recorded as “highest binding”. For the same substance, the “increase in the number of rosettes in the presence of the anti-CD2 antibody” value in [10] is “four-fold increase”.
